In patent US9597407B2, “Targeted antimicrobial moieties” (C3 Jian, Inc., priority 2009, dated 2017):
Ends that are not written are not given here.

Tested on: microorganisms
Assay: Morphology, biofilm and growth disruption by peptides (Table 5)
Type: cell-based
Design: key: A: Peptide aggregates; B: Less hyphal formation; Clumps; Diffuse clumps and small polyps; F: Diffuse growth; H: Thin; I: Growth inhibition; Microcolony formation; Rippled; Small polyps; Thick; W: Halo formation on top, microlonies on bottom
Description: In certain embodiments peptides that induce alterations in phenotype or other biological activities can also be used as antimicrobial effector moieties.

Substance	Organism, effect (morphology, biofilm and growth disruption) (C. jejuni)	Organism, effect (morphology, biofilm and growth disruption) (E. faecalis)	Organism, effect (morphology, biofilm and growth disruption) (MRSA)	Organism, effect (morphology, biofilm and growth disruption) (S. epidermidis)	Organism, effect (morphology, biofilm and growth disruption) (S. pneumoniae)	Organism, effect (morphology, biofilm and growth disruption) (E. coli)	other results
PF-431 (VAYAAICWW; Peptide with targeting and/or antimicrobial activity)	C. jejuni (R)	E. faecalis (R)	MRSA (C)	S. epidermidis (M)	S. pneumoniae (R)		
PF-432 (FNGDSEFFLCIAF; Peptide with targeting and/or antimicrobial activity)	C. jejuni (D)	E. faecalis (D)	MRSA (M)	S. epidermidis (M)	S. pneumoniae (D)	E. coli (R)	Organism, effect (morphology, biofilm and growth disruption) (P. aeruginosa): P. aeruginosa (A)
PF-449 (MPTTKSKQKGWTNTKKASNTQ; Peptide with targeting and/or antimicrobial activity)					S. pneumoniae (H)		
PF-455 (MARNDDDIKKIKGTLGQSPEVYGERKLPYT; Peptide with targeting and/or antimicrobial activity)					S. pneumoniae (A)		
PF-468 (EDNKDKKDKKDK; Peptide with targeting and/or antimicrobial activity)					S. pneumoniae (H)		
PF-485 (KNSMSRSIALID; Peptide with targeting and/or antimicrobial activity)					S. pneumoniae (A)		
PF-516 (ASKQASKQASKQASKQ; Peptide with targeting and/or antimicrobial activity)					S. pneumoniae (H)		
PF-532 (KFIYKYKLSFIIYKILIQTLTMELNK; Peptide with targeting and/or antimicrobial activity)		E. faecalis (C)	MRSA (C)		S. pneumoniae (C)	E. coli (C)	
PF-534 (KYFHLFYHNIIHYSKQHLSLKVDFKN-NH2)		E. faecalis (C)	MRSA (C)	S. epidermidis (C)	S. pneumoniae (R)	E. coli (R)	
PF-535 (NIKTRKRALKIIKQHQRSK; Peptide with targeting and/or antimicrobial activity)					S. pneumoniae (H)		Organism, effect (morphology, biofilm and growth disruption) (P. aeruginosa): P. aeruginosa (H)
PF-536 (MEPIPHIMIIANQIGIIIEKA; Peptide with targeting and/or antimicrobial activity)		E. faecalis (C)	MRSA (C)	S. epidermidis (C)	S. pneumoniae (M)	E. coli (R)	Organism, effect (morphology, biofilm and growth disruption) (P. aeruginosa): P. aeruginosa (H)
PF-541 (RRNLNSPNIKTRKRALKIIKQHQRSK; Peptide with targeting and/or antimicrobial activity)					S. pneumoniae (H)	E. coli (H)	
PF-561 (ESLEADVQAELDTEAAKYPALPASF; Peptide with targeting and/or antimicrobial activity)			MRSA (M)				Organism, effect (morphology, biofilm and growth disruption) (B. subtilis): B. subtilis (D)
PF-565 (RAEAEAQRQAEADAKRKAEEAARL; Peptide with targeting and/or antimicrobial activity)			MRSA (C)				Organism, effect (morphology, biofilm and growth disruption) (B. subtilis): B. subtilis (D)
PF-571 (SDLLYYPNENREDSPAGVVKEVKE; Peptide with targeting and/or antimicrobial activity)							Organism, effect (morphology, biofilm and growth disruption) (B. subtilis): B. subtilis (D)
PF-574 (LVKSGKLESPYEHSEHLTLSQEKGLE; Peptide with targeting and/or antimicrobial activity)							Organism, effect (morphology, biofilm and growth disruption) (B. subtilis): B. subtilis (D)
PF-581 (WTARARR; Peptide with targeting and/or antimicrobial activity)	C. jejuni (A)	E. faecalis (A)	MRSA (A)		S. pneumoniae (A)		
PF-582 (NLKTIEKECPFCNNKMDIKLKD; Peptide with targeting and/or antimicrobial activity)		E. faecalis (A)					
PF-586 (FFNQANYFFKEF; Peptide with targeting and/or antimicrobial activity)	C. jejuni (D)	E. faecalis (D)	MRSA (D)	S. epidermidis (C)	S. pneumoniae (D)	E. coli (C)	
PF-592 (IMKNYKYFKLFIVKYALF; Peptide with targeting and/or antimicrobial activity)	C. jejuni (S)	E. faecalis (D)	MRSA (D)	S. epidermidis (M)	S. pneumoniae (D)	E. coli (C)	
PF-595 (LQNKIYELLYIKERSKLCS; Peptide with targeting and/or antimicrobial activity)	C. jejuni (D)	E. faecalis (D)	MRSA (D)	S. epidermidis (C)	S. pneumoniae (R)	E. coli (C)	
PF-605 (HYRWNTQWWKY; Peptide with targeting and/or antimicrobial activity)	C. jejuni (R)	E. faecalis (R)	MRSA (C)	S. epidermidis (R)	S. pneumoniae (D)	E. coli (C)	Organism, effect (morphology, biofilm and growth disruption) (C. albicans): C. albicans (B); Organism, effect (morphology, biofilm and growth disruption) (P. aeruginosa): P. aeruginosa (A)
PF-610 (VFLKLKTSKIDLASIIFYP; Peptide with targeting and/or antimicrobial activity)	C. jejuni (D)	E. faecalis (D)	MRSA (D)	S. epidermidis (C)	S. pneumoniae (D)	E. coli (C)	
PF-612 (GTTLKYGLERQLKIDIHPEITIINLNGGADEFAKL; Peptide with targeting and/or antimicrobial activity)			MRSA (C)	S. epidermidis (C)	S. pneumoniae (C)	E. coli (C)	Organism, effect (morphology, biofilm and growth disruption) (M. luteus): M. luteus (A); Organism, effect (morphology, biofilm and growth disruption) (P. mirabilis): P. mirabilis (C); Organism, effect (morphology, biofilm and growth disruption) (S. mutans): S. mutans (F)
PF-615 (FLNRFIFYIFTVKTKSALIKNLFLD; Peptide with targeting and/or antimicrobial activity)	C. jejuni (D)	E. faecalis (D)	MRSA (D)	S. epidermidis (D)	S. pneumoniae (D)	E. coli (C)	
PF-618 (KLNTLNKKDNPSLNDQDKNAVLNLLALAK; Peptide with targeting and/or antimicrobial activity)		E. faecalis (H)			S. pneumoniae (I)		
PF-624 (VFLLDSYCFVKINL; Peptide with targeting and/or antimicrobial activity)			MRSA (C)	S. epidermidis (D)	S. pneumoniae (D)	E. coli (C)	Organism, effect (morphology, biofilm and growth disruption) (M. luteus): M. luteus (C); Organism, effect (morphology, biofilm and growth disruption) (P. mirabilis): P. mirabilis (C); Organism, effect (morphology, biofilm and growth disruption) (S. mutans): S. mutans (D)
PF-630 (chain 1 IPATPIIHS; chain 2 IPATPIIHS; Peptide with targeting and/or antimicrobial activity)			MRSA (M)				
